Measured values from US20090099215A1, “Metabolic enhancing properties of norphenephrine and its salts” (priority 2007, published 2009).

Assay: oral administration of norphenephrine and its salts to users: metabolic, appetite, mental and addiction effects
Assay type: in vivo, human

Question: With `NCC(O)c1cccc(O)c1` (centres unmarked) [norphenephrine, Norphenephrine] as the compound, how does the “time until the user experiences a vastly reduced appetite for food” value (after intake) read?
Answer: The value was ≤ 30 min.

Question: What about the “interaction with caffeine (metabolic enhancement)” value (co-administration of caffeine) of the same compound?
Answer: Its value is “synergy between caffeine and norphenephrine is observed”.

Question: What about the “addictive / habituating nature” value (even at high dosages, compared with amphetamines) of the same compound?
Answer: The value was “not addictive, or even habituating”.

Question: And the “adipose tissue loss versus lean body mass” value (in vivo)?
Answer: Its value is “specifically enhance the loss of adipose tissue while preserving lean body mass”.

Question: What about the “focus, acuity and psychological outlook” value (in vivo) of the same compound?
Answer: Its value is “sustained and noticeable effect”.

Question: What about the overall metabolic rate (in vivo) of the same compound?
Answer: Its overall metabolic rate is “increase a user's overall metabolic rate”.

Question: And the insulin sensitivity (muscle tissue apart from adipose tissue)?
Answer: The insulin sensitivity was “specifically increase insulin sensitivity in muscle tissue”.

Question: And the fat mass (no changes to the user's current diet and exercise regimen)?
Answer: Its fat mass is “noticeable and quantifiable decrease in fat mass”.
